From patent US20070004650A1, “Endurance improving agent” (KAO CORPORATION, priority 2003, published 2007)

What was measured:
Assay type in all cases: cell-based, mouse
phospho-AMPK α (Thr72) = experiment: AMPK activation in Hepa 1-6 cells, phospho-AMPK α Western blot; conditions: for Phospho-AMPK α: 60 minutes, Hepa 1-6, band intensity relative to control = 100; for AMPK-activating effect (summary in words): Hepa 1-6, results of Tables 4 to 6
Description: (§1) Test 3 (AMPK Activating Effect of Catechins)
(§2) Using a mouse hepatocyte line (Hepa 1-6), activation of AMPK was assessed based on degrees of phosphorylation of AMPK and ACC (acetyl-CoA carboxylase) as indices.
The mouse hepatocyte line (Hepa 1-6) was seeded in a 25-cm^2 flask, and cultured in DMEM (+10% FBS, +antimicrobial agent) at 37° C. for 1 to 2 days. When the culture has become subconfluent, the medium was removed. After washed with PBS(−),DMEM(−FBS)was added as a replacement medium, followed by further culture for 1 day. Subsequent to removal of the medium, DMEM (−FBS) with catechins and a tea extract added at predetermined concentrations therein was added, followed by culture for 60 minutes. Subsequent to removal of the medium and washing with PBS (−), a lytic solution [10 mM Tris (pH 7.4), 50 mM NaCl, 30 mM sodium pyrophosphate, 0.5% Triton X-100, protease inhibitor cocktail (“SIGMA P2714”), phosphatase inhibitor cocktail-1 (“SIGMA P2850”), phosphatase inhibitor cocktail 1-2 (“SIGMA P5726”); 200 μL] was added, and a lysate was collected by a cell scraper. The thus-collected lysate was caused to pass three times through a syringe with 23 G needle so that the lysate was homogenized. The homogenized lysate was then allowed stand on ice for 30 minutes. The lysate was centrifuged at 15,000 rpm and at 4° C. for 15 minutes, and proteins in supernatant were provided for use in the following experiment.
After the concentration of the proteins in supernatant was measured, it was adjusted such that the protein concentration became identical among the samples. A ¼ volume of SDS buffer (250 mM Tris, 12.5% SDS, 20% glycerol) was added, followed by further addition of 2-mercaptoethanol and bromophenol blue. The resulting mixture was subjected to thermal denaturation at 95° C., and was then quenched at 4° C. to provide a sample for electrophoresis.
A predetermined amount (about 20 to 40 μg) of the sample for electrophoresis was subjected to SDS-PAGE (4 or 12% gel). After transferred onto a membrane, phospho-AMPK α (Thr72), phospho-AMPK β (Ser108) and phospho-ACC (Ser79) were detected using an anti-phospho-AMPK α antibody (product of Cell Signaling Technology, Inc.), an anti-phospho-AMPK β antibody (product of Cell Signaling Technology, Inc.) or an anti-phospho-ACC antibody (product of Cell Signaling Technology, Inc.) as a primary antibody, an anti-rabbit-HRP antibody (product of Amersham Biosciences, Inc.) as a secondary antibody, and a phototope-HRP Western detection system (product of Cell Signaling Technology, Inc.) as a detection reagent. The intensities of detected bands were converted into numerical values (pixels) by an image analysis (“EDAS 290 Image Analysis System”, Kodak Company). Supposing that the corresponding band intensities of the control (catechins non-added group) were 100, the numerical values (pixels) were indicated as relative values to the values of the control. It is to be noted that as catechin samples, products of SIGMA Corporation or Wako Pure Chemical Industries, Ltd. were used. As the tea extract (tea catechins), “TEAFURAN” (product of ITO EN, LTD.) as used.

phospho-AMPK β (Ser108) = experiment: AMPK activation in Hepa 1-6 cells, phospho-AMPK β Western blot; conditions: 60 minutes, band intensity relative to control = 100
Description: as §1, §2
The mouse hepatocyte line (Hepa 1-6) was seeded in a 25-cm^2 flask, and cultured in DMEM (+10% FBS, +antimicrobial agent) at 37° C. for 1 to 2 days. When the culture has become subconfluent, the medium was removed. After washed with PBS(−),DMEM(−FBS)was added as a replacement medium, followed by further culture for 1 day. […]
After the concentration of the proteins in supernatant was measured, it was adjusted such that the protein concentration became identical among the samples. […]
A predetermined amount (about 20 to 40 μg) of the sample for electrophoresis was subjected to SDS-PAGE (4 or 12% gel). After transferred onto a membrane, phospho-AMPK α (Thr72), phospho-AMPK β (Ser108) and phospho-ACC (Ser79) were detected using an anti-phospho-AMPK α antibody (product of Cell Signaling Technology, Inc.), an anti-phospho-AMPK β antibody (product of Cell Signaling Technology, Inc.) or an anti-phospho-ACC antibody (product of Cell Signaling Technology, Inc.) as a primary antibody, an anti-rabbit-HRP antibody (product of Amersham Biosciences, Inc.) as a secondary antibody, and a phototope-HRP Western detection system (product of Cell Signaling Technology, Inc.) as a detection reagent. […]

phospho-ACC (Ser79) = experiment: AMPK activation in Hepa 1-6 cells, phospho-ACC Western blot; conditions: 60 minutes, band intensity relative to control = 100
Description: The mouse hepatocyte line (Hepa 1-6) was seeded in a 25-cm^2 flask, and cultured in DMEM (+10% FBS, +antimicrobial agent) at 37° C. for 1 to 2 days. When the culture has become subconfluent, the medium was removed. After washed with PBS(−),DMEM(−FBS)was added as a replacement medium, followed by further culture for 1 day. Subsequent to removal of the medium, DMEM (−FBS) with catechins and a tea extract added at predetermined concentrations therein was added, followed by culture for 60 minutes. […]
A predetermined amount (about 20 to 40 μg) of the sample for electrophoresis was subjected to SDS-PAGE (4 or 12% gel). […] The intensities of detected bands were converted into numerical values (pixels) by an image analysis (“EDAS 290 Image Analysis System”, Kodak Company). […]

Molecule: Oc1cc(O)c2c(c1)O[C@H](c1ccc(O)c(O)c1)[C@H](O)C2 [Epicatechin]
- Phospho-AMPK α (phospho-AMPK α (Thr72); Table 4, 150 μM): 246

Molecule: O=C(O[C@@H]1Cc2c(O)cc(O)cc2O[C@@H]1c1ccc(O)c(O)c1)c1cc(O)c(O)c(O)c1 [Epicatechingallate]
- Phospho-AMPK α (phospho-AMPK α (Thr72); Table 4, 150 μM): 256

Molecule: Oc1cc(O)c2c(c1)O[C@H](c1cc(O)c(O)c(O)c1)[C@H](O)C2 [Epigallocatechin]
- AMPK-activating effect (summary in words) (phospho-AMPK α (Thr72)): excellent AMPK-activating effect
- Phospho-AMPK α (phospho-AMPK α (Thr72); Table 4, 150 μM): 435

Molecule: O=C(O[C@@H]1Cc2c(O)cc(O)cc2O[C@@H]1c1cc(O)c(O)c(O)c1)c1cc(O)c(O)c(O)c1 [Epigallocatechingallate]
- AMPK-activating effect (summary in words) (phospho-AMPK α (Thr72)): excellent AMPK-activating effect
- Phospho-AMPK α (phospho-AMPK α (Thr72); Table 4, 150 μM): 1085
- Phospho-AMPK α (phospho-AMPK α (Thr72); Table 5, 100 μM): 198
- Phospho-AMPK α (phospho-AMPK α (Thr72); Table 5, 150 μM): 261
- Phospho-AMPK β (phospho-AMPK β (Ser108); Table 5, 100 μM): 120
- Phospho-AMPK β (phospho-AMPK β (Ser108); Table 5, 150 μM): 149
- Phospho-ACC (phospho-ACC (Ser79); Table 5, 100 μM): 220
- Phospho-ACC (phospho-ACC (Ser79); Table 5, 150 μM): 304

Molecule: Oc1cc(O)c2c(c1)O[C@H](c1cc(O)c(O)c(O)c1)[C@@H](O)C2 [Gallocatechin]
- AMPK-activating effect (summary in words) (phospho-AMPK α (Thr72)): excellent AMPK-activating effect
- Phospho-AMPK α (phospho-AMPK α (Thr72); Table 4, 150 μM): 451

Molecule: O=C(O[C@@H]1Cc2c(O)cc(O)cc2O[C@H]1c1cc(O)c(O)c(O)c1)c1cc(O)c(O)c(O)c1 [Gallocatechingallate]
- AMPK-activating effect (summary in words) (phospho-AMPK α (Thr72)): excellent AMPK-activating effect
- Phospho-AMPK α (phospho-AMPK α (Thr72); Table 4, 150 μM): 1124

Molecule: Catechin
- Phospho-AMPK α (phospho-AMPK α (Thr72); Table 4, 150 μM): 78

Molecule: Catechingallate
- Phospho-AMPK α (phospho-AMPK α (Thr72); Table 4, 150 μM): 369
